{
  "source": "patent US10800810B2",
  "about": "“Active peptide for inhibiting AMPA receptor and preparation method and use thereof” (CHINA NATIONAL RESEARCH INSTITUTE OF FOOD AND FERMENTATION …, priority 2015, dated 2020)",
  "key": {"[1]": {"system": "pentylenetetrazole (PTZ) model", "conditions": "background; cited from earlier work"}, "[2]": {"conditions": "background; cited from earlier work"}, "[3]": {"system": "PTZ-induced mouse epilepsy", "experiment": "Model of PTZ-induced epilepsy seizure", "format": "in vivo", "conditions": "for preclinical period of epilepsy seizure vs PBS treated group: 30 minutes before PTZ 55 mg/kg i.p.", "protocol": "In order to determine anticonvulsive effect of EGAR, the degree of epilepsy after EGAR treatment is evaluated for the model of PTZ-induced epilepsy seizure. EGAR is injected into animals earlier 30 minutes than PTZ. The animals are randomly divided into 4 groups, and each group has 10 animals. 4 groups are given EGAR at 0, 1, 10 and 100 mg/kg respectively. All animals are intraperitoneally injected with PTZ at a dose of 55 mg/kg, and this dose can produce clonic seizures in all control animals.\nBehaviors of mice are observed for 30 minutes immediately after PTZ injection. […] Mice are placed in a transparent plastic cage, and are observed for 30 minutes. The cage is thoroughly cleaned by using wet/dry cloth and any olfactory clue is removed with 70% ethanol. Animals that show rampage and forelimb clonus or more serious behavior (rampage, clonus and fall down) are considered to be epilepsy in mouse brain edge. Epilepsy seizure is scored according to the following criteria: 0, no response; 1, immobile; 2, taste movement and grasping; 3, tremor; 4, head shaking; 5, rampage and forelimb clonus; 6, rampage, clonus and fall down; 7, death."}, "NMDA receptor [4]": {"system": "NMDA receptor", "experiment": "NMDAR-mediated EPSC and mEPSC in mouse hippocampal slices", "format": "cell-based", "protocol": "(§1) The slices of the hippocampus are transferred to an underwater recording room (Warner instrument). In the recording room, the slices are continuously perfused with ACSF at a speed of 3 ml/min, and whole-cell records of neurons of CA1 region of the hippocampus are performed by those experimenters who are not distinguished between a control group and a treated group. The neurons are identified through morphological recognition using an infrared ray differential interference phase-contrast microscope (BX51W, Olympus, Japan). A borosilicate microtube of 1.5 mm (external diameter)×0.86 mm (internal diameter) is drawn via a flame Brown electrode drawing instrument (P-97, Sutter instrument) using a 4 stage drawing scheme, to form a recording electrode with a resistance between 6-9 megohms. The recording electrode for recording is filled with above-mentioned internal liquid, and a whole-cell recording is proceeded by using above-mentioned external liquid.\n(§2) Bipolar polytetrafluoroethylene insulated iridium is used to perform a voltage-clamp recording of excitatory postsynaptic currents (EPSCs), and platinum microelectrode (AM system) is induced at a frequency of 0.0167 Hz. Records are taken by a Multiclamp 700B amplifier, filtered at 10 kHz, sampled at 200 microseconds, and recorded to a personal computer by using pClamp10.2 software, and then analyzed by using Axon Digidata 1440A and pClamp10.2 (Molecular Devices).\n(2) after blocking components of NMDA receptor-mediated EPSCs by adding 50 μM of D-APV to ACSF and blocking AMPAR-mediated EPSCs by adding 10 μM of CNQX to ACSF, remaining EPSCs of both them are also recorded. 10 μM of PTX is added in external liquid to isolate mEPSCs. After 10 μM of CNQX and 20 μM of EGAR and also 50 μM of D-APV (an antagonist of NMDA receptor) and 20 μM of EGAR are added to ACSF, mEPSCs are also recorded. By adding 10 μM of CNQX or 50 μM of D-APV to ACSF, NMDAR-mediated or AMPAR-mediated mEPSCs are isolated. […]"}, "[5]": {"system": "neurons of CA1 region of the hippocampus", "experiment": "Whole-cell recording of EPSC and mEPSC in mouse hippocampal slices", "format": "cell-based", "conditions": "for amplitudes of mEPSCs: P<0.03", "protocol": "Hippocampus is taken from a C57BL/6 mouse to do whole-cell recording. The mouse is deep narcotized with 20% urethane before being decollated, then its brain is rapidly removed and immersed in ice-cold ACSF, then the brain is trimmed, and fixed onto a vibration slicer (Leica VT1000A, Germany) to be cut into coronal slices of 350 microns. The slices are incubated with ACSF for at least 1 hour at room temperature before recording.\nas §1, §2\nExperiments mentioned below are carried out respectively, and the results are represented by an average value±S.E.M. In addition to data analysis of cumulative probability by the means of K-S test, statistical analyses of biological data are all performed by using T-test. All the statistical analyses are done by using SPSS 13.0 software.\n(1) EPSCs of slices treated by EGAR are recorded, while EPSCs of slices without EGAR treatment is as contrast, and 10 μM of PTX is added into the external liquid to separate mEPSCs out."}, "NMDA receptor [6]": {"system": "NMDA receptor", "experiment": "Current induced by NMDA, patch clamp", "format": "cell-based, mouse", "conditions": "100 μM NMDA plus 20 μM EGAR, P>0.05, n=6", "protocol": "as §1\n(§3) (4) With regard to records of currents induced by NMDA, 100 μM of NMDA is added into above-mentioned external liquid; with regard to records of currents induced by AMPA, 20 μM of AMPA is added into above-mentioned external liquid."}, "hippocampal neuron": {"system": "hippocampal neuron", "experiment": "Epilepsy-like discharge of a hippocampal neuron induced by low magnesium external liquid", "format": "cell-based, mouse", "protocol": "as §1\n(5) In an experiment of nominal zero magnesium, magnesium ions are replaced by sodium ions with the same osmotic concentration."}, "AMPA receptor [7]": {"system": "AMPA receptor", "experiment": "Current induced by AMPA, patch clamp", "format": "cell-based, mouse", "protocol": "as §1, §3"}, "AMPA receptor [8]": {"system": "AMPA receptor", "experiment": "AMPAR-mediated EPSC and mEPSC in mouse hippocampal slices", "format": "cell-based", "protocol": "as §1, §2\n(2) after blocking components of NMDA receptor-mediated EPSCs by adding 50 μM of D-APV to ACSF and blocking AMPAR-mediated EPSCs by adding 10 μM of CNQX to ACSF, remaining EPSCs of both them are also recorded. 10 μM of PTX is added in external liquid to isolate mEPSCs. After 10 μM of CNQX and 20 μM of EGAR and also 50 μM of D-APV (an antagonist of NMDA receptor) and 20 μM of EGAR are added to ACSF, mEPSCs are also recorded. By adding 10 μM of CNQX or 50 μM of D-APV to ACSF, NMDAR-mediated or AMPAR-mediated mEPSCs are isolated.\n(3) With regard to a NMDAR-mediated current record, 100 μM of NMDA is added into the above-mentioned external liquid; and with regard to an AMPAR-mediated current record, 20 μM of AMPA is added into above-mentioned external liquid."}, "CA1 neuron": {"system": "CA1 neuron", "experiment": "Effect on electrophysiological properties of a neuron", "format": "cell-based, mouse", "protocol": "as §1"}, "[9]": {"conditions": "behavioral experiment, overall conclusion"}},
  "data": [
    {"compound": "NS(=O)(=O)c1cccc2c1c([N+](=O)[O-])cc1nc(O)c(O)nc12", "note": "[NBQX, 2,3-dihydroxy-6-nitro-7-sulfamoyl benzo [f] quinoxaline]", "values": [
      {"measurement": "effect in pentylenetetrazole (PTZ) model", "setting": "[1]", "result": "can play a role"},
      {"measurement": "solubility", "setting": "[2]", "result": "low solubility"}
    ]},
    {"compound": "EGAR: tetrapeptide with an amino-acid sequence of SEQ ID No.17, contained in the salmon skin active peptide; synthetic EGAR used in tests (Salmo salar)", "values": [
      {"measurement": "preclinical period of epilepsy seizure vs PBS treated group", "setting": "[3]; 1 mg/kg EGAR", "result": "significant difference"},
      {"measurement": "preclinical period of epilepsy seizure vs PBS treated group", "setting": "[3]; 10 mg/kg EGAR", "result": "significant difference"},
      {"measurement": "preclinical period of epilepsy seizure vs PBS treated group", "setting": "[3]; 100 mg/kg EGAR", "result": "significant difference"},
      {"measurement": "preclinical period of epilepsy seizure", "setting": "[3]; [9]", "result": "extend the preclinical period"},
      {"measurement": "tic symptom of PTZ-induced mouse epilepsy", "setting": "[3]; [9]", "result": "mitigate tic symptom"},
      {"measurement": "amplitude of NMDAR-mediated EPSC vs control group", "setting": "NMDA receptor [4]; 10 μM CNQX then 20 μM EGAR, P>0.05, n=6", "result": "not changed"},
      {"measurement": "frequencies of NMDAR-mediated mEPSCs", "setting": "NMDA receptor [4]; 100 μM NMDA plus 20 μM EGAR, P>0.05", "result": "no significant difference"},
      {"measurement": "amplitudes of NMDAR-mediated mEPSCs", "setting": "NMDA receptor [4]; 100 μM NMDA plus 20 μM EGAR, P>0.05, n=6", "result": "no significant difference"},
      {"measurement": "amplitudes of mEPSCs", "setting": "[5]; 20 μM EGAR", "result": "reduce"},
      {"measurement": "amplitudes of mEPSCs", "setting": "[5]; 50 μM EGAR", "result": "reduce"},
      {"measurement": "amplitudes of mEPSCs", "setting": "[5]; 100 μM EGAR", "result": "reduce"},
      {"measurement": "cumulative probabilities of mEPSC event intervals vs control group", "setting": "[5]; EGAR treated groups at concentrations", "result": "no difference"},
      {"measurement": "cumulative probabilities of mEPSC amplitudes vs control group", "setting": "[5]; EGAR treated groups at concentrations, K-S test p<0.05", "result": "reduced"},
      {"measurement": "mEPSC frequencies vs control group", "setting": "[5]; slices treated with EGAR, 10 μM PTX", "result": "no change"},
      {"measurement": "peak current of NMDA, difference between groups", "setting": "NMDA receptor [6]", "result": "no significant difference"},
      {"measurement": "frequency of a peak current caused by low magnesium, difference between groups", "setting": "hippocampal neuron; 20 μM EGAR, P<0.05, n=6", "result": "significant difference"},
      {"measurement": "epilepsy-like discharge of a hippocampal neuron induced by low magnesium external liquid", "setting": "hippocampal neuron; overall conclusion", "result": "can inhibit"},
      {"measurement": "peak current of AMPA, difference between groups", "setting": "AMPA receptor [7]; 20 μM AMPA plus 20 μM EGAR, P<0.01, n=6", "result": "significant difference"},
      {"measurement": "inward current induced by AMPA", "setting": "AMPA receptor [7]; 20 μM AMPA, 20 μM EGAR, voltage-clamped at -70 mV", "result": "reduced"},
      {"measurement": "amplitude of AMPAR-mediated EPSC vs control group", "setting": "AMPA receptor [8]; 50 μM D-APV and 20 μM EGAR, P<0.01, n=6", "result": "significantly lower"},
      {"measurement": "cumulative probabilities of AMPAR-mediated mEPSCs amplitudes vs control group", "setting": "AMPA receptor [8]; K-S test, p<0.05, n=6", "result": "reduces"},
      {"measurement": "cumulative probabilities of AMPAR-mediated mEPSC event intervals vs control group", "setting": "AMPA receptor [8]; K-S test, p>0.05, n=6", "result": "no difference in frequency"},
      {"measurement": "amplitude of AMPAR-mediated mEPSCs vs control group", "setting": "AMPA receptor [8]; neurons treated by EGAR, P<0.05, t test, n=6", "result": "decline"},
      {"measurement": "frequencies of AMPAR-mediated mEPSCs vs control group", "setting": "AMPA receptor [8]; neurons treated with EGAR, P>0.05, t test", "result": "do not change"},
      {"measurement": "Action potential half width", "setting": "CA1 neuron; 20 uM of EGAR treated group", "result": "0.99 ± 0.01", "unit": "ms"},
      {"measurement": "Amplitude", "setting": "CA1 neuron; 20 uM of EGAR treated group", "result": "87.61 ± 1.18", "unit": "mV"},
      {"measurement": "Frequency", "setting": "CA1 neuron; 20 uM of EGAR treated group", "result": "13.53 ± 2.42", "unit": "Hz"},
      {"measurement": "Input resistance", "setting": "CA1 neuron; 20 uM of EGAR treated group", "result": "164.57 ± 9.96", "unit": "MΩ"},
      {"measurement": "Membrane capacitance", "setting": "CA1 neuron; 20 uM of EGAR treated group", "result": "19.07 ± 0.67", "unit": "pF"},
      {"measurement": "Resting potential", "setting": "CA1 neuron; 20 uM of EGAR treated group", "result": "−65.57 ± 1.23", "unit": "mV"},
      {"measurement": "Threshold potential", "setting": "CA1 neuron; 20 uM of EGAR treated group", "result": "−45.61 ± 0.2", "unit": "mV"},
      {"measurement": "effect on electrophysiological parameters of a CA1 neuron", "setting": "CA1 neuron; overall conclusion of Table 2", "result": "no significant effect"}
    ]}
  ]
}
